The record followed here is US12655175B2, “C17, C20, and C21 substituted neuroactive steroids and their methods of use” (Sage Therapeutics, LLC, priority 2016, dated 2026).

This test deals with GABAA receptor. Briefly: Steroid inhibition of [35S]-TBPS binding. Particulars: rat brain cortical membranes, 3 nM [35S]-TBPS, in the presence of 5 mM GABA. The method, then:
Steroid Inhibition of TBPS Binding
Briefly, cortices are rapidly removed following decapitation of carbon dioxide-anesthetized Sprague-Dawley rats ([…]). The cortices are homogenized in 10 volumes of ice-cold 0.32 M sucrose using a glass/teflon homogenizer and centrifuged at 1500×g for 10 min at 4° C. The resultant supernatants are centrifuged at 10,000×g for 20 min at 4° C. to obtain the P2 pellets. The P2 pellets are resuspended in 200 mM NaCl/50 mM Na—K phosphate pH 7.4 buffer and centrifuged at 10,000×g for 10 min at 4° C. This washing procedure is repeated twice and the pellets are resuspended in 10 volumes of buffer. Aliquots ([…]) of the membrane suspensions are incubated with 3 nM [^35S]-TBPS and […] aliquots of test drug dissolved in dimethyl sulfoxide (DMSO) (final 0.5%) in the presence of 5 mM GABA. The incubation is brought to a final volume of 1.0 mL with buffer. […] Following a 90 min incubation at room temp, the assays are terminated by filtration through glass fiber filters (Schleicher and Schuell No. 32) using a cell harvester (Brandel) and rinsed three times with ice-cold buffer. Filter bound radioactivity is measured by liquid scintillation spectrometry. Non-linear curve fitting of the overall data for each drug averaged for each concentration is done using Prism (GraphPad).
Various compounds are or can be screened to determine their potential as modulators of [^35S]-TBPS binding in vitro. These assays are or can be performed in accordance with the above discussed procedures.

Bounds are passed on as bounds.

For orientation: IC50 means the point on the concentration scale where inhibition reaches its midpoint. For the compound `CC[C@H](NC(=O)[C@H]1CC[C@H]2[C@@H]3CC[C@@H]4C[C@](C)(O)CC[C@@H]4[C@H]3CC[C@]12C)c1ccc(F)cc1` (single isomer, unassigned) [Compound 33], the IC50 is 100 to 500 nM.

For the compound `CC[C@@H](NC(=O)[C@H]1CC[C@H]2[C@@H]3CC[C@@H]4C[C@](C)(O)CC[C@@H]4[C@H]3CC[C@]12C)c1ccc(F)cc1` (single isomer, unassigned) [Compound 34], the IC50 was in the range of 100 to 500 nM.

As for `C[C@@]1(O)CC[C@H]2[C@@H](CC[C@@H]3[C@@H]2CC[C@@]2(C)[C@H]3CCC2(O)c2ccccc2)C1` (stereo in doubt) [Compound 100], the IC50 is greater than 500 nM.

With `C[C@@]1(O)CC[C@H]2[C@H](CC[C@@H]3[C@@H]2CC[C@]2(C)[C@@H](C(=O)NCc4ccccc4)CC[C@@H]32)C1` [Compound 1], the IC50 fell in the range of 50 to 100 nM.

Turning to `CCN(CC)C(=O)[C@H]1CC[C@H]2[C@@H]3CC[C@@H]4C[C@](C)(O)CC[C@@H]4[C@H]3CC[C@]12C` [Compound 2], the IC50 fell in the range of 100 to 500 nM.

As for `C[C@@]1(O)CC[C@H]2[C@H](CC[C@@H]3[C@@H]2CC[C@]2(C)[C@@H](C(=O)Nc4ccccc4)CC[C@@H]32)C1` [Compound 3], the IC50 is less than 10 nM.

As for `CN(Cc1ccccc1)C(=O)[C@H]1CC[C@H]2[C@@H]3CC[C@@H]4C[C@](C)(O)CC[C@@H]4[C@H]3CC[C@]12C` [Compound 4], the IC50 fell in the range of 10 to 50 nM.

With `C[C@@]1(O)CC[C@H]2[C@H](CC[C@@H]3[C@@H]2CC[C@]2(C)[C@@H](C(=O)N4CCCCC4)CC[C@@H]32)C1` [Compound 5], the IC50 lay in the range of 50 to 100 nM.

For `C[C@@]1(O)CC[C@H]2[C@H](CC[C@@H]3[C@@H]2CC[C@]2(C)[C@@H](C(=O)N4CCCOCC4)CC[C@@H]32)C1` [Compound 6], the IC50 was greater than 500 nM.

Consider `CN(C(=O)[C@H]1CC[C@H]2[C@@H]3CC[C@@H]4C[C@](C)(O)CC[C@@H]4[C@H]3CC[C@]12C)c1ccccc1` [Compound 7], for which the IC50 is greater than 500 nM.

As for `C[C@@]1(O)CC[C@H]2[C@H](CC[C@@H]3[C@@H]2CC[C@]2(C)[C@@H](C(=O)NC4CCCCC4)CC[C@@H]32)C1` [Compound 8], the IC50 lay in the range of 50 to 100 nM.

On to `CN(C(=O)[C@H]1CC[C@H]2[C@@H]3CC[C@@H]4C[C@](C)(O)CC[C@@H]4[C@H]3CC[C@]12C)C1CCCCC1` [Compound 9], for which the IC50 fell in the range of 100 to 500 nM.

Turning to `CN(C(=O)[C@H]1CC[C@H]2[C@@H]3CC[C@@H]4C[C@](C)(O)CC[C@@H]4[C@H]3CC[C@]12C)C1CCOCC1` [Compound 10], the IC50 fell in the range of 100 to 500 nM.

For `C[C@@]1(O)CC[C@H]2[C@H](CC[C@@H]3[C@@H]2CC[C@]2(C)[C@@H](C(=O)NCc4ccncc4)CC[C@@H]32)C1` [Compound 11], the concentration for half-maximal inhibition (IC50) was greater than 500 nM.

With `C[C@@]1(O)CC[C@H]2[C@H](CC[C@@H]3[C@@H]2CC[C@]2(C)[C@@H](C(=O)NCc4cccnc4)CC[C@@H]32)C1` [Compound 12], the IC50 was greater than 500 nM.

Take `CN(Cc1ccncc1)C(=O)[C@H]1CC[C@H]2[C@@H]3CC[C@@H]4C[C@](C)(O)CC[C@@H]4[C@H]3CC[C@]12C` [Compound 13]: the IC50 lay in the range of 100 to 500 nM.

With `CN(CC1CCOCC1)C(=O)[C@H]1CC[C@H]2[C@@H]3CC[C@@H]4C[C@](C)(O)CC[C@@H]4[C@H]3CC[C@]12C` [Compound 14], the IC50 is greater than 500 nM.

As for `C[C@@]1(O)CC[C@H]2[C@H](CC[C@@H]3[C@@H]2CC[C@]2(C)[C@@H](C(=O)NCc4ccccn4)CC[C@@H]32)C1` [Compound 15], the IC50 lay in the range of 100 to 500 nM.

Consider `CN(Cc1cccnc1)C(=O)[C@H]1CC[C@H]2[C@@H]3CC[C@@H]4C[C@](C)(O)CC[C@@H]4[C@H]3CC[C@]12C` [Compound 16], for which the IC50 was in the range of 100 to 500 nM.

As to `C[C@@]1(O)CC[C@H]2[C@H](CC[C@@H]3[C@@H]2CC[C@]2(C)[C@@H](C(=O)NCC4CCCCC4)CC[C@@H]32)C1` [Compound 17], the IC50 was in the range of 100 to 500 nM.

Consider `CN(CCc1ccccc1)C(=O)[C@H]1CC[C@H]2[C@@H]3CC[C@@H]4C[C@](C)(O)CC[C@@H]4[C@H]3CC[C@]12C` [Compound 18], for which the half-inhibitory concentration (IC50) lay in the range of 50 to 100 nM.

Take `C[C@@]1(O)CC[C@H]2[C@H](CC[C@@H]3[C@@H]2CC[C@]2(C)[C@@H](C(=O)NCCc4ccccc4)CC[C@@H]32)C1` [Compound 19]: the IC50 was in the range of 100 to 500 nM.

Regarding `C[C@@H](NC(=O)[C@H]1CC[C@H]2[C@@H]3CC[C@@H]4C[C@](C)(O)CC[C@@H]4[C@H]3CC[C@]12C)c1ccccc1` [Compound 20], the IC50 lay in the range of 100 to 500 nM.

As for `C[C@@H](c1ccccc1)N(C)C(=O)[C@H]1CC[C@H]2[C@@H]3CC[C@@H]4C[C@](C)(O)CC[C@@H]4[C@H]3CC[C@]12C` [Compound 21], the IC50 was 10 to 50 nM.

For `CN(Cc1ccccn1)C(=O)[C@H]1CC[C@H]2[C@@H]3CC[C@@H]4C[C@](C)(O)CC[C@@H]4[C@H]3CC[C@]12C` [Compound 22], the IC50 is greater than 500 nM.

`C[C@@]1(O)CC[C@H]2[C@H](CC[C@@H]3[C@@H]2CC[C@]2(C)[C@@H](C(=O)N4CCCCCC4)CC[C@@H]32)C1` [Compound 23]: the IC50 lay in the range of 100 to 500 nM.

On to `C[C@@]1(O)CC[C@H]2[C@H](CC[C@@H]3[C@@H]2CC[C@]2(C)[C@@H](C(=O)NCC4CCOCC4)CC[C@@H]32)C1` [Compound 24], for which the IC50 is greater than 500 nM.

Take `C[C@@H]1CCCCN1C(=O)[C@H]1CC[C@H]2[C@@H]3CC[C@@H]4C[C@](C)(O)CC[C@@H]4[C@H]3CC[C@]12C` [Compound 25]: the IC50 lay within 100 to 500 nM.

In the case of `CN(CC1CCCCC1)C(=O)[C@H]1CC[C@H]2[C@@H]3CC[C@@H]4C[C@](C)(O)CC[C@@H]4[C@H]3CC[C@]12C` [Compound 26], the IC50 is 100 to 500 nM.

As for `C[C@H](NC(=O)[C@H]1CC[C@H]2[C@@H]3CC[C@@H]4C[C@](C)(O)CC[C@@H]4[C@H]3CC[C@]12C)c1ccccc1` [Compound 27], the IC50 was in the range of 100 to 500 nM.

As for `C[C@H]1CCCCN1C(=O)[C@H]1CC[C@H]2[C@@H]3CC[C@@H]4C[C@](C)(O)CC[C@@H]4[C@H]3CC[C@]12C` [Compound 28], the IC50 fell in the range of 100 to 500 nM.

In the case of `C[C@@]1(O)CC[C@H]2[C@H](CC[C@@H]3[C@@H]2CC[C@]2(C)[C@@H](C(=O)NC4CCOCC4)CC[C@@H]32)C1` [Compound 29], the IC50 was greater than 500 nM.

As for `C[C@@]1(O)CC[C@H]2[C@H](CC[C@@H]3[C@@H]2CC[C@]2(C)[C@@H](C(=O)N4CC[C@@H](c5ccccc5)C4)CC[C@@H]32)C1` [Compound 30], the IC50 lay in the range of 100 to 500 nM.

Consider `C[C@@]1(O)CC[C@H]2[C@H](CC[C@@H]3[C@@H]2CC[C@]2(C)[C@@H](C(=O)N4CC[C@H](c5ccccc5)C4)CC[C@@H]32)C1` [Compound 31], for which the IC50 lay within 50 to 100 nM.

Take `C[C@H](c1ccccc1)N(C)C(=O)[C@H]1CC[C@H]2[C@@H]3CC[C@@H]4C[C@](C)(O)CC[C@@H]4[C@H]3CC[C@]12C` [Compound 32]: the IC50 fell in the range of 10 to 50 nM.

Consider `C[C@@]1(O)CC[C@H]2[C@H](CC[C@@H]3[C@@H]2CC[C@]2(C)[C@@H](C(=O)N4CCCc5ccccc54)CC[C@@H]32)C1` [Compound 35], for which the IC50 lay in the range of 100 to 500 nM.

For the compound `C[C@@]1(O)CC[C@H]2[C@H](CC[C@@H]3[C@@H]2CC[C@]2(C)[C@@H](C(=O)Nc4ccc(F)cc4C#N)CC[C@@H]32)C1` [Compound 37], the 50% inhibitory concentration (IC50) is 10 to 50 nM.

As to `C[C@@]1(O)CC[C@H]2[C@H](CC[C@@H]3[C@@H]2CC[C@]2(C)[C@@H](C(=O)CNc4ccccc4)CC[C@@H]32)C1` [Compound 38], the IC50 is less than 10 nM.

For `CN(CC(=O)[C@H]1CC[C@H]2[C@@H]3CC[C@@H]4C[C@](C)(O)CC[C@@H]4[C@H]3CC[C@]12C)c1ccccc1` [Compound 39], the IC50 lay in the range of 50 to 100 nM.

Consider `C[C@@]1(O)CC[C@H]2[C@H](CC[C@@H]3[C@@H]2CC[C@]2(C)[C@@H](C(=O)CNc4ccc(F)cc4)CC[C@@H]32)C1` [Compound 40], for which the IC50 is less than 10 nM.

For `C[C@@]1(O)CC[C@H]2[C@H](CC[C@@H]3[C@@H]2CC[C@]2(C)[C@@H](C(=O)CNc4cccc(F)c4)CC[C@@H]32)C1` [Compound 41], the IC50 was less than 10 nM.

For `CN(CC(=O)[C@H]1CC[C@H]2[C@@H]3CC[C@@H]4C[C@](C)(O)CC[C@@H]4[C@H]3CC[C@]12C)c1cccc(F)c1` [Compound 42], the IC50 lay in the range of 10 to 50 nM.
